The values that follow come from patent publication US20260258004A1, “CRYSTALLINE FORMS OF (6S)-5-[4'-FLUORO-2-(TRIFLUOROMETHYL)BIPHENYL-4-YL]-6-METHYL-3,6- DIHYDRO-2H-l,3,4-OXADIAZIN-2-ONE” (Bayer Aktiengesellschaft, priority 2022, published 2026).

Common to all, as to type: physicochemical
Data set [1] in a line: Hygroscopicity classification applying the Pharmacopeia rules. From the text: The shear cell was fully filled with a sample of powder of the compound of formula (I) thereby preventing condensing the powder. Both samples, sample 1 and sample 2, were classified as non-hydroscopic applying the Pharmacopeia rules.
Data set [2] is described as follows: Determination of bulk density during shear tests. Particulars: during shear test. The protocol: Because of the normal stress of 1.5 kPa applied on the top of the lid during the shear test the lid lowers into the shear cell and compresses the powder.
During the shear tests this lowering of the lid is measured and recorded. Since the volume of the bottom ring is known and weight of the sample measured before the beginning of the shear test the bulk density of the sample during the shear test is calculated
[formula] • with: • ρb,shear: Bulk density under shear • mges: total mass of shear cell including powder sample (w/o lid) • mcell: net mass of shear cell (w/o powder sample, w/o lid) • hc: height of the bottom ring • hl: lowering of lid • Acell: bottom area of shear cell
The calculation of the bulk density is done automatically with the evaluation software provided together with the shear tester.

Data set [3] can be described thus: Thermodynamic stability of the polymorphic forms. Conditions: between 0° C. and 80° C.
A short description of data set [4]: Schulze ring shear test (flow properties). Conditions: normal load 1.5 kPa, 24° C., humidity 30%, no storage time. From the text: The device used is the Schulze ring shear tester RST-XS.s for which a general technical product information is available on http://www.dietmar-schulze.de. We were using the shear cell XS-SV3. A statement referring to the testing procedure from the technical product information for RST-XS.s reads as follows: • “Testing procedure: The powder sample is contained in an annular shear cell “(FIG. 19B). • “A vertical load ? N] is applied through a thin loading rod on the annular lid. To shear the sample, the shear cell rotates relative to the lid (direction ω), and the torque necessary for shearing is determined from forces and F1 and F2 acting in a tie rod and a push rod. Following a well-defined procedure, which is executed computer-controlled, the flow properties are measured. […]
During the shear test, the bottom ring slowly rotated in the direction of the arrow with the low rotational speed ω of 2 rpm maximum. Rotation of the lid was prevented by the tension rods; the tensile forces F1 and F2 necessary to achieve this are measured by the load cells. From the normal and shear forces respectively stresses, the so-called yield locus was determined, which describes the flow behavior of a bulk solid. […]
The experimental data obtained were analyzed following the method described in Schulze, D. (2008). […] FIG. 21 provides the flow factor of both samples as calculated on basis of the ring shear experiment. […]

The structures appear in SMILES notation.

For the compound `C[C@@H]1OC(=O)NN=C1c1ccc(-c2ccc(F)cc2)c(C(F)(F)F)c1` [polymorph C, (6S)-5-[4′-Fluoro-2-(trifluoromethyl)biphenyl-4-yl]-6-methyl-3,6-dihydro-2H-1,3,4-oxadiazin-2-one], the hygroscopicity classification entry in data set [1] is listed as “non-hydroscopic”. The “bulk density compared with sample 1 (FIG. 22)” value in data set [2] is “significantly higher”. In addition, the bulk density entry in data set [2] (normal stress 1.5 kPa) is reported as “about 550 kg/m^3”. The thermodynamic stability result in data set [3] was “thermodynamically stable form”. For the same compound, the “flow behaviour (flow factor ffc)” value in data set [4] is given as “flowing a bit better than polymorph A”.
